According to US10183973B2, “Solvate of cyclic peptide compound, preparation method for same, and uses thereof” (SHANGHAI TECHWELL BIOPHARMACEUTICAL CO., LTD, priority 2014, dated 2019):
*1 amine or outer side, *2 acyl side, *3 side chain or, on linkers, in order; H or OH if unused. Where a SMILES comes first, the peptide text is derived from it. Bridges are numbered along the chain shown (N, C = ends). [ ]: non-standard residue; d: D form. The star is where a group is joined. hTyr(3S-OH,4S-OH,3'-OSO3H) = N[C@H](C(=O)O)[C@H](O)[C@@H](O)c1ccc(O)c(OS(=O)(=O)O)c1; Orn(4R-OH,5R-OH) = O=C([C@H](C[C@@H](O)[C@@H](O)N[*:3])N[*:1])[*:2]; Pro(3S-OH,4S-Me) = C[C@H]1CN[C@H](C(=O)O)[C@H]1O; X1 = CCCCCOc1ccc(-c2cc(-c3ccc(C(=O)*)cc3)no2)cc1; Gln(3R-OH) = NC(=O)C[C@@H](O)[C@H](N)C(=O)O; Hyp = O=C(O)[C@@H]1C[C@@H](O)CN1

Test: Purity and stability test (HPLC purity after sealed storage at 25° C. for 30 days)
Type: physicochemical
Conditions: for Purity of initial sample: HPLC purity before storage (baseline of stability test); for Purity of sample after stored ar 25° C. for 30 days: sealed, HPLC purity
Text: High performance liquid chromatography (HPLC) is a common method for detecting the purity of a compound, wherein a liquid is used as the mobile phase and a high-pressure transfusion system is used for pumping the mobile phase, such as single solvents with different polarities or a mixture of solvents at different proportions, buffers, into a column packed with a stationary phase. Each component is separated in the column, and then enters into a detector for detection, thereby analyzing a sample. In the present invention, HPLC is used for determining the purity of the compound of formula I and studying the stability of a sample.
HPLC detection method is listed as follows:
Analysis Column: YMC-ODS 250×4.6 mm, 5 μm;
Mobile phase: acetonitrile:phosphate buffer (pH 3.0)=45:70;
Column temperature: 35° C.;
Diluent: aqueous phosphate buffer;
Detection wavelength: 210 nm;
In this Example, the purity and stability of samples obtained in Comparative Examples and Examples were compared. The used method is described as follows:
The solvate of the compound of formula I prepared in Examples 2, the crystal of B82 type obtained in Comparative Example 1 and amorphous solids obtained in Example 1 were taken and sealed at 25° C. for 30 days respectively. And then the content of impurities in the sample was analyzed. Results for comparing the stability of the solvate of the compound of formula I according to the present invention, the crystal of B82 type and the amorphous solid are shown in the following table: […]

CCCCCOc1ccc(-c2cc(-c3ccc(C(=O)N[C@H]4C[C@@H](O)[C@@H](O)NC(=O)[C@@H]5[C@@H](O)[C@@H](C)CN5C(=O)[C@H]([C@H](O)CC(N)=O)NC(=O)[C@H]([C@H](O)[C@@H](O)c5ccc(O)c(OS(=O)(=O)[O-])c5)NC(=O)[C@@H]5C[C@@H](O)CN5C(=O)[C@H]([C@@H](C)O)NC4=O)cc3)no2)cc1.[Na+] [Amorphous solids, Micafungin Sodium] (X1-[Orn(4R-OH,5R-OH)]T[Hyp][hTyr(3S-OH,4S-OH,3'-OSO3H)][Gln(3R-OH)][Pro(3S-OH,4S-Me)]; lactam 1-C)
Purity of initial sample: 99.38% | Purity of sample after stored ar 25° C. for 30 days: 89.27%

CCCCCOc1ccc(-c2cc(-c3ccc(C(=O)N[C@H]4C[C@@H](O)[C@@H](O)NC(=O)[C@@H]5[C@@H](O)[C@@H](C)CN5C(=O)[C@H]([C@H](O)CC(N)=O)NC(=O)[C@H]([C@H](O)[C@@H](O)c5ccc(O)c(OS(=O)(=O)[O-])c5)NC(=O)[C@@H]5C[C@@H](O)CN5C(=O)[C@H]([C@@H](C)O)NC4=O)cc3)no2)cc1.[Na+] [Crystal of B82 type, Micafungin Sodium] (X1-[Orn(4R-OH,5R-OH)]T[Hyp][hTyr(3S-OH,4S-OH,3'-OSO3H)][Gln(3R-OH)][Pro(3S-OH,4S-Me)]; lactam 1-C)
Purity of initial sample: 99.50% | Purity of sample after stored ar 25° C. for 30 days: 96.98%

CCCCCOc1ccc(-c2cc(-c3ccc(C(=O)N[C@H]4C[C@@H](O)[C@@H](O)NC(=O)[C@@H]5[C@@H](O)[C@@H](C)CN5C(=O)[C@H]([C@H](O)CC(N)=O)NC(=O)[C@H]([C@H](O)[C@@H](O)c5ccc(O)c(OS(=O)(=O)[O-])c5)NC(=O)[C@@H]5C[C@@H](O)CN5C(=O)[C@H]([C@@H](C)O)NC4=O)cc3)no2)cc1.[Na+] [Solvate of the compound of formula I, Sodium 5-[(1S,2S)-2-[(3S,6S,9S,11R,15S,18S,20R,21R,24S,25S,26S)-3-[(R)-2-carbamoyl-1-hydroxyethyl]-11,20,21,25-tetrahydroxy-15-[(R)-1-hydroxyethyl]-26-methyl-2,5,8,14,17,23-hexaoxo-18-[4-[5-(4-pentoxyphenyl)isoxazol-3-yl]benzoylamino]-1,4,7,13,16,22-hexaazatricyclo[22.3.0.0^9,13]heptacosan-6-yl]-1,2-dihydroxyethyl]-2-hydroxy phenyl sulfate] (X1-[Orn(4R-OH,5R-OH)]T[Hyp][hTyr(3S-OH,4S-OH,3'-OSO3H)][Gln(3R-OH)][Pro(3S-OH,4S-Me)]; lactam 1-C)
Purity of initial sample: 99.55% | Purity of sample after stored ar 25° C. for 30 days: 99.50% | stability compared with crystal of B82 type (solid-state stability, in words): better than that of the crystal of B82 type
